# Source: patent publication US20140288025A1, “FATTY ACID ANTIVIRAL CONJUGATES AND THEIR USES” (Catabasis Pharmaceuticals, Inc., priority 2013, published 2014)
# Like-named read-outs stand apart in the source and are kept apart here.
# Assays:
# Type in all cases: cell-based
# HIV-1IIIB strain = experiment: HIV-1 cytoprotection assay (CEM-SS cells, MTS dye reduction); conditions: for IC50 HIV-1IIIB strain (nM): CEM-SS cells, 6 days, MTS
# Experimental: Cytoprotection assays are commonly used for evaluating the antiviral efficacy of test compounds against a variety of viruses in different cell lines. […] Briefly, virus and cells are mixed in the presence of test compound and incubated for 6 days. […] Each assay plate contains cell control wells (cells only), virus control wells (cells plus virus), compound toxicity control wells (cells plus compound only), compound colorimetric control wells (compound only), as well as experimental wells (compound plus cells plus virus). Cytoprotection and compound cytotoxicity are assessed by MTS (CellTiter®96 Reagent, Promega, Madison Wis.) dye reduction. […] Each assay includes the HIV reverse transcriptase inhibitor AZT as a positive control.
# CEM-SS cells were obtained from the NIH AIDS Research and Reference Reagent Program and are routinely passaged in T-75 flasks using standard tissue culture techniques based on the specifications provided by the supplier. On the day preceding the assay, the cells are split 1:2 to assure they are in an exponential growth phase at the time of infection. Total cell number and percent viability determinations are performed using a hemacytometer and trypan blue exclusion. […] The cells are re-suspended at 5×10^4 cells/mL in tissue culture medium and added to the drug-containing 96-well microtiter plates in a volume of 50 μl.
# The viruses used for this assay are CXCR4-tropic laboratory virus strains. The most commonly used strains are HIV-1RF and HIV-1IIIB (each obtained from the NIH AIDS Research and Reference Reagent Program). For each assay, a pre-titered aliquot of virus is removed from the freezer (−80° C.) and allowed to thaw slowly to room temperature in a biological safety cabinet. The virus is re-suspended and diluted into tissue culture medium such that the amount of virus added to each well in a volume of 50 μl is the amount determined to give between 85 to 95% cell killing at 6 days post-infection.
# Each plate contains cell control wells (cells only), virus control wells (cells plus virus), drug cytotoxicity wells (cells plus drug only), drug colorimetric control wells (drug only), background control wells (media only), as well as experimental wells (drug plus cells plus virus). Samples are evaluated for antiviral efficacy with triplicate measurements using 6 concentrations at half-log dilutions (12 concentrations can also be performed) in order to determine IC50 values and with duplicate measurements to determine cellular cytotoxicity, if detectable.
# 100% EtOH is added to the compounds of the invention such that the EtOH stock concentration is 50 mM. […] (VWR Ultrasonics Cleaner, Model #B8500A-DTH with “Sonics Power” set to HI); e) The 1:2 serial dilutions of the 1 mM 10× stock solution with FBS/2% EtOH are prepared such that the concentrations of the 10× stock solutions are 1 mM, 0.5 mM, 0.25 mM, etc., in FBS with 2% EtOH. Medium is aspirated off cells and replaced with serum free medium.
# HBV = HBV assay, extracellular HBV DNA in HepG2 2.2.15 cells; conditions: Hepatitis B virus, read-out: EC90 against HBV
# Experimental: Extracellular HBV DNA analysis was carried out using the protocols outlined in Innaimo et al, Antimicrobial Agents and Chemotherapy 1997, 41, p. 1444-1448 and Korba and Milman Antiviral Research 1991, 15, p. 217-228. HepG2 2.2.15 cells were maintained in RPMI 1640 supplemented with 2 mM L-glutamine, 50 U of penicillin per mL, 50 μg of streptomycin per mL, 500 μg of G418 per mL, and 5% fetal bovine serum. Stock solutions of the test compounds were prepared according to the procedures outlined in example 3. HepG2 2.2.15 cells were plated at a density of 5×10^5 cells per well on 12-well Biocoat collagen-coated plates (Collaborative Biosciences, Beford, Mass.) and were maintained in a confluent state for 2 to 3 days before being overlaid with 1 mL of medium spiked with the antiviral compound. Compound-containing medium was changed daily for 9 days. On day 10, the media were collected and clarified by pelleting the cellular debris with a 5-min microcentrifuge spin at 16,000×g. Supernatants were processed for HBV DNA by the alkaline lysis method. Released HBV DNA was immobilized on a Magnagraph nylon membrane (Micron Separatations, Inc., Westborough, Mass.) by sing a dot blot manifold full-length HBV genome template excised from plasmid pTHBV-1 (American Type Culture Collection, Rockville, Md.) and ^32P-radiolabeled to a specific activity of 2×10^9 cpm/μg by using a random primer kit (Life Technologies, Grand Island, N.Y.). Quantification was performed on a Storm 860 phosphorimager (Molecular Dynamics, Sunnyvale, Calif.). All drug concentrations were tested in duplicate or triplicate, with antiviral effects being scored as reductions in the amount of HBV DNA present in the medium relative to that in untreated controls after the 10-day treatment period. Using the assay, the following EC90 values against HBV were obtained: […]
# NF-κB = NF-κB luciferase reporter assay in RAW 264.7 macrophages; conditions: for IC50: Mus musculus
# Experimental: RAW 264.7 cells stably expressing a 3×NFkB response element-drive luciferase reporter were seeded into 96 well plates in sera-free medium (Optimem) 18 hours prior to compound application. Compounds of the invention were prepared by first making 100 mM stock solutions in EtOH. […] Cells were then stimulated with 200 ng/ml LPS or vehicle control for 3 hours in the presence of the compounds of the invention. A set of six vehicles was left unstimulated with LPS in order to measure the assay floor. AlamarBlue viability dye (Invitrogen) was added to cells simultaneously with the delivery of LPS (final AlamarBlue concentration of 10%). After the 3 h incubation period with LPS, cell viability was measured by reading fluorescence (excitation 550 nm, emission 595 nm) with a Perkin Elmer Victor V plate reader. Then cell media was aspirated from each well. Luciferase signal was then developed by addition of the Britelite Plus reagent (Perkin Elmer). Luciferase activity was measured with the Perkin Elmer Victor V plate reader. NE-κB activity was expressed as a percent of the vehicle control wells (stimulated with LPS). Compounds were tested at 6 dose point titrations in triplicate to determine IC50 values.
# [1] = system: HCV Con 1 subgenomic replicon; experiment: HCV replicon assay (Huh-7 GS4.1 cells, NS4A ELISA); conditions: Hepatitis C virus, Huh-7 GS4.1 replicon cells, 72 hours
# Experimental: The HCV replicon assay was carried out in the same manner described in WO 2010/018140, WO 2011/123586, Okuse et al Antivir. Res. 2005, 65, p. 23, Blight et al Science 2000, 290, p. 1972, Korba and Gerin Antivir. Res. 1992, 19, p. 55). Huh-7 cells containing HCV Con 1 subgenomic replicon (GS4.1 cells) were grown in Dulbecco's Modified Eagle Medium (DMEM) supplemented with 10% fetal bovine serum (FBS), 2 mM L-glutamine, 110 mg/L sodium pyruvate, 1× non-essential amino acids, 100 U/mL penicillin-streptomycin and 0.5 mg/mL G418 (Invitrogen). For dose-response testing, the cells were seeded in 96-well plates at 7.5×10^3 cells/well in a volume of […] and incubated at 37° C./5% CO2. […] The cells were incubated in the presence of compounds for 72 hours after which they are monitored for expression of the NS4A protein by enzyme-linked immunosorbent assay (ELISA). […] The reaction was stopped after 30 minutes with 2 N H2SO4 and the absorbance was read at 492 nm using a Sunrise Tecan spectrophotometer. EC50 values were determined from the % inhibition vs concentration data using a sigmoidal non-linear regression analysis based on four parameters with Tecan Magellan software. For cytotoxicity evaluation, GS4.1 cells are treated with compounds as described and cellular viability can be monitored using a Cell Titer 96 AQueous One Solution Cell Proliferation Assay (Promega). […]
# [2] = RAW264.7, 3 h, read-out: NF-kB inhibitory activity IC50 μM
SMILES,"EC90 (HBV; HepG2 2.2.15, 240 h)",IC50 (NF-κB; [2]),further results
"CC/C=C\C/C=C\C/C=C\C/C=C\C/C=C\C/C=C\CCC(=O)NCCNP(=O)(OC[C@@H]1O[C@H](n2ccc(N)nc2=O)CS1)Oc1ccccc1 (stereo partly drawn) [II-67, ((2R,5S)-5-(4-amino-2-oxopyrimidin-1(2H)-yl)-1,3-oxathiolan-2-yl)methyl phenyl (2-((4Z,7Z,10Z,13Z,16Z,19Z)-docosa-4,7,10,13,16,19-hexaenamido)ethyl)phosphoramidate]",75 nM,,"IC50 (HIV-1IIIB strain; Human immunodeficiency virus 1, IIIB, CEM-SS, 144 h, read-out: IC50 HIV-1IIIB strain (nM)): < 100 nM; NF-kB inhibitory activity IC50 μM (NF-κB; RAW 264.7 reporter cells, 200 ng/ml LPS, 3 hours): + +"
"CC/C=C\C/C=C\C/C=C\C/C=C\C/C=C\C/C=C\CCC(=O)Nc1ccn([C@@H]2CS[C@H](CO)O2)c(=O)n1 [Example V-18, (4Z,7Z,10Z,13Z,16Z,19Z)—N-(1-((2R,5S)-2-(hydroxymethyl)-1,3-oxathiolan-5-yl)-2-oxo-1,2-dihydropyrimidin-4-yl)docosa-4,7,10,13,16,19-hexaenamide]",,,"IC50 HIV-1IIIB strain (nM) (HIV-1IIIB strain): + ++; EC90 (HBV; 240 h, HepG2 2.2.15 cells, extracellular HBV DNA, 10-day treatment): 81 nM; IC50 (NF-κB; RAW264.7, RAW 264.7 reporter cells, 200 ng/ml LPS, 3 hours, read-out: NF-kB inhibitory activity IC50): > 200 µM"
"C=C1[C@H](COP(=O)(NCCNC(=O)CCC/C=C\C/C=C\C/C=C\C/C=C\C/C=C\CC)OC)[C@@H](O)C[C@@H]1n1cnc2c(=O)nc(N)[nH]c21 (stereo partly drawn) [II-48, ((1R,3S,5S)-3-(2-amino-6-oxo-3H-purin-9(6H)-yl)-5-hydroxy-2-methylenecyclopentyl)methyl methyl (2-((5Z,8Z,11Z,14Z,17Z)-icosa-5,8,11,14,17-pentaenamido)ethyl)phosphoramidate]",7 nM,50 to 200 µM,
"CC/C=C\C/C=C\C/C=C\C/C=C\C/C=C\C/C=C\CCC(=O)NCCNP(=O)(OC[C@H]1O[C@@H](n2ccc(=O)[nH]c2=O)[C@](C)(F)[C@@H]1O)Oc1ccccc1 (stereo partly drawn) [II-1, ((2R,3R,4R,5R)-5-(2,4-dioxo-3,4-dihydropyrimidin-1(2H)-yl)-4-fluoro-3-hydroxy-4-methyltetrahydrofuran-2-yl)methyl phenyl (2-((4Z,7Z,10Z,13Z,16Z,19Z)-docosa-4,7,10,13,16,19-hexaenamido)ethyl) phosphoramidate]",,,EC50 [1]: 780 nM
CC/C=C\C/C=C\C/C=C\C/C=C\C/C=C\CCCC(=O)NCCNP(=O)(OC[C@@H]1OC(n2ccc(N)nc2=O)CS1)Oc1ccccc1 (stereo partly drawn) [II-68],82 nM,50 to 200 µM,
"CC/C=C\C/C=C\C/C=C\C/C=C\C/C=C\C/C=C\CCC(=O)NCCNC(=O)OC[C@@H]1O[C@H](n2ccc(N)nc2=O)CS1 [Example V-21, ((2R,5S)-5-(4-amino-2-oxopyrimidin-1(2H)-yl)-1,3-oxathiolan-2-yl)methyl (2-((4Z,7Z,10Z,13Z,16Z,19Z)-docosa-4,7,10,13,16,19-hexaenamido)ethyl)carbamate]",79 nM,50 to 200 µM,IC50 HIV-1IIIB strain (nM) (HIV-1IIIB strain): + ++
"C=C1[C@H](COP(=O)(NCCNC(=O)CC/C=C\C/C=C\C/C=C\C/C=C\C/C=C\C/C=C\CC)OC)[C@@H](O)C[C@@H]1n1cnc2c(=O)nc(N)[nH]c21 (stereo partly drawn) [II-46, ((1R,3S,5S)-3-(2-amino-6-oxo-3H-purin-9(6H)-yl)-5-hydroxy-2-methylenecyclopentyl)methyl methyl (2-((4Z,7Z,10Z,13Z,16Z,19Z)-docosa-4,7,10,13,16,19-hexaenamido)ethyl)phosphoramidate]",7 nM,,
